Laboratory results published in US20250206745A1, “PYRROLOPYRIDAZINE DERIVATIVES AND RELATED USES” (NodThera Limited, priority 2023, published 2025).
Counter-ions that a name gives are not always drawn.

Legend:
[1] = system: IL-1β release upon NLRP3 activation in phorbol 12-myristate 13-acetate (PMA)-differentiated THP-1 cells; assay: THP-1 IC50 Determination Assay; format: cell-based; details: Homo sapiens, inhibition of IL-1β release, LPS, nigericin, ELISA
Procedure: The compounds of the present disclosure were tested for their inhibitory activity against IL-1β release upon NLRP3 activation in phorbol 12-myristate 13-acetate (PMA)-differentiated THP-1 cells.
THP-1 cells stored in liquid nitrogen were thawed in a 37° C. water bath. The cells were added into complete RPMI 1640 medium (FBS (56 mL), 100× Penicillin-Streptomycin (5.6 mL) and 0.05 mM 2-Mercaptoethanol in RPMI 1640 Medium (500 mL)) and centrifuged for 5 min at 1000 rpm. The supernatant was discarded and the cells resuspended into new cell culture medium for culturing. Cells were cultured in cell culture medium and passaged every 3-4 days to maintain cell density between 4×10^5 and 1.5×10^6 cells/mL. The cells were diluted to 0.8×10^6 cells/mL and grown in a T150 flask with PMA (final concentration 5 ng/mL). The flask was incubated in a 37° C. incubator with a humidified atmosphere of 5% CO2 for −40 hours. After −40 hours of PMA differentiation, the flask was washed with DPBS. Cells were digested with Trypsin LE for about 5 min at room temperature, and digestion was terminated using complete RPMI 1640 medium. Cells were centrifuged and resuspended (1000 rpm, 3 min). The supernatant was discarded and cells washed with DPBS, centrifuged and resuspended cells (1000 rpm, 5 min). Cells were plated at 30,000 cells/well in a 384-well PP plate and treated with 25 ng/mL LPS solution diluted in serum-free medium (45 μL). The plate was incubated in a 37° C. incubator with a humidified atmosphere of 5% CO2 for 2 hours. Compounds (from 10 mM DMSO solution) were dispensed and serially diluted by 1:3 eight times, with final 0.5% DMSO concentration. NLRP3 inflammasome was activated with nigericin (5 μL), the plate was centrifuged (1000 rpm, 30 s) and incubated in a 37° C. incubator with a humidified atmosphere of […] for 2 hours. 35 μL/well of supernatant was removed and IL-1β levels determined by ELISA assay (Mabtech 3416-1H-20) according to the manufacturer's instructions.

[2] = system: IL-1β release upon NLRP3 activation in peripheral blood mononuclear cells (PBMC); assay: PBMC IC50 Determination Assay; format: cell-based; details: Homo sapiens; inhibition of IL-1β release; PBMC primed with LPS, stimulated with ATP or nigericin; ELISA or HTRF
Procedure: The compounds of the present disclosure were tested for their inhibitory activity against IL-1β release upon NLRP3 activation in peripheral blood mononuclear cells (PBMC).
Protocol A. PBMC were isolated from buffy coats by density gradient centrifugation on Histopaque-1077 (Sigma, cat no. 10771). Isolated cells were seeded into the wells of a 96-well plate and incubated for 3 h with lipopolysaccharide (LPS). Following medium exchange, the compounds of the present disclosure were added (a single compound per well) and the cells were incubated for 30 min. Next, the cells were stimulated either with ATP (5 mM) or nigericin (10 μM) for 1 h and the cell culture media from the wells were collected for further analysis.
The release of IL-1β into the media was determined by a quantitative detection of IL-1β in the media using an IL-1β enzyme-linked immunosorbent assay (ELISA) Ready-SET-Go!, eBioscience cat. No. 88-7261-88. Briefly, in a first step, high affinity binding plates (Corning, Costar 9018 or NUNC Maxisorp Cat No. 44-2404) were coated overnight at 4° C. with specific capture antibody included in the kit (anti-human IL-1β ref. 14-7018-68). Subsequently, plates were blocked with blocking buffer for 1 h at room temperature (rt) and after washing with a buffer (PBS with 0.05% Tween-20) incubated with protein standard and culture media. After 2 h of incubation at rt, plates were washed and incubated with biotinylated detection antibody included in the kit (anti-human IL-1β Biotin ref. 33-7110-68) for 1 h at rt. Plates were washed and incubated with HRP-streptavidin for 30 min at rt and washed again. The signal was developed after addition of 3,3′,5,5′-tetramethylbenzidine-peroxidase (TMB) until colour appeared and the reaction was stopped by 2 M H2SO4. A microplate spectrophotometer (BioTek) was used to detect signals with 450 nm. The detection range of IL-1β ELISA was […].
Protocol B. PBMC were isolated from buffy coats by density gradient centrifugation on Histopaque-1077 (Sigma, cat no. 10771). Isolated cells were seeded into the wells (280,000 cells/well) of a 96-well plate and incubated for 3 h with lipopolysaccharide (LPS, 1 μg/mL diluted 1000× from a 1 mg/mL stock solution). The compounds of the present disclosure were added (a single compound per well) and the cells were incubated for 30 min. Next, the cells were stimulated with ATP (5 mM final concentration diluted 20× from a 100 mM stock solution) for 1 h and the cell culture media from the wells were collected for further analysis.
The release of IL-1β into the media was determined by quantitative detection of IL-1β in the media using HTRF®, CisBio cat. No. 62HIL1BPEH. Briefly, cell culture supernatant were dispensed directly into the assay plate containing antibodies labelled with the HTRF® donor and acceptor. A microplate spectrophotometer (BMG) was used to detect signals at 655 nm and 620 nm. The detection range of IL-1β HTRF® was 39-6500 pg/mL.

Structure (SMILES)	IC50 [1] [nM]	IC50 [2] [nM]
Cc1cc(Cl)cc(O)c1-c1cc2ccn(CC3CCOCC3)c2nn1 [Compound 37, 5-Chloro-3-methyl-2-{7-[(oxan-4-yl)methyl]-7H-pyrrolo[2,3-c]pyridazin-3-yl}phenol]	300 to 1000	100 to 300
Cc1cc(Cl)cc(O)c1-c1cc2ccn(CCN3CCCCC3)c2nn1 [Compound 38, 5-Chloro-3-methyl-2-{7-[2-(piperidin-1-yl)ethyl]-7H-pyrrolo[2,3-c]pyridazin-3-yl}phenol hydrochloride]	300 to 1000	300 to 1000
Cc1cc(Cl)cc(O)c1-c1cc2ccn(CC3CCCN3C)c2nn1 (centres unmarked) [Compound 39, 5-Chloro-3-methyl-2-{7-[(1-methylpyrrolidin-2-yl)methyl]-7H-pyrrolo[2,3-c]pyridazin-3-yl}phenol hydrochloride]	300 to 1000	100 to 300
Cc1cc(Cl)cc(O)c1-c1cc2ccn(CCN3CCCC3=O)c2nn1 [Compound 40, 1-{2-[3-(4-Chloro-2-hydroxy-6-methylphenyl)-7H-pyrrolo[2,3-c]pyridazin-7-yl]ethyl}pyrrolidin-2-one]	1000 to 3000	1000 to 3000
Cc1cc(Cl)cc(O)c1-c1cc2ccn(CC3COCCN3C)c2nn1 (centres unmarked) [Compound 41, 5-Chloro-3-methyl-2-{7-[(4-methylmorpholin-3-yl)methyl]-7H-pyrrolo[2,3-c]pyridazin-3-yl}phenol hydrochloride]	300 to 1000	100 to 300
Cc1cc(Cl)cc(O)c1-c1cc2ccn(CC3CCCOC3)c2nn1 (centres unmarked) [Compound 42, 5-Chloro-3-methyl-2-{7-[(oxan-3-yl)methyl]-7H-pyrrolo[2,3-c]pyridazin-3-yl}phenol]	300 to 1000	100 to 300
CC(=O)NCCn1ccc2cc(-c3c(C)cc(Cl)cc3O)nnc21 [Compound 44, N-{2-[3-(4-Chloro-2-hydroxy-6-methylphenyl)-7H-pyrrolo[2,3-c]pyridazin-7-yl]ethyl}acetamide]	300 to 1000	300 to 1000
Cc1cc(Cl)cc(O)c1-c1cc2ccn(CCN3CCC(=O)C3)c2nn1 [Compound 45, 1-{2-[3-(4-Chloro-2-hydroxy-6-methylphenyl)-7H-pyrrolo[2,3-c]pyridazin-7-yl]ethyl}pyrrolidin-3-one]	300 to 1000	300 to 1000
Cc1cc(Cl)cc(O)c1-c1cc2ccn(C[C@H]3CCCCN3C)c2nn1 [Compound 47, 5-Chloro-3-methyl-2-(7-{[(2R)-1-methylpiperidin-2-yl]methyl}-7H-pyrrolo[2,3-c]pyridazin-3-yl)phenol hydrochloride]	300 to 1000	100 to 300
Cc1cc(Cl)cc(O)c1-c1cc2ccn(CC3CCN(C)C4(CC4)C3)c2nn1 (centres unmarked) [Compound 49, 5-Chloro-3-methyl-2-[7-({4-methyl-4-azaspiro[2.5]octan-7-yl}methyl)-7H-pyrrolo[2,3-c]pyridazin-3-yl]phenol hydrochloride]	300 to 1000	100 to 300
Cc1cc(Cl)cc(O)c1-c1cc2ccn(C(=O)N3CCN(C)CC3)c2nn1 [Compound 50, 5-Chloro-3-methyl-2-[7-(4-methylpiperazine-1-carbonyl)-7H-pyrrolo[2,3-c]pyridazin-3-yl]phenol hydrochloride]	300 to 1000	3000 to 10000
Cc1cc(C#N)cc(O)c1-c1cc2ccn(CC3CCN(C)CC3)c2nn1 [Compound 54, 3-Hydroxy-5-methyl-4-{7-[(1-methylpiperidin-4-yl)methyl]-7H-pyrrolo[2,3-c]pyridazin-3-yl}benzonitrile]	300 to 1000	100 to 300

The next lines start with results.

IC50 [1] [nM]	Structure (SMILES)	IC50 [2] [nM]
300 to 1000	Cc1cc(Cl)cc(O)c1-c1cc2ccn(CC3CN(C)CCO3)c2nn1 (centres unmarked) [Compound 34, 5-Chloro-3-methyl-2-{7-[(4-methylmorpholin-2-yl)methyl]-7H-pyrrolo[2,3-c]pyridazin-3-yl}phenol hydrochloride]	300 to 1000
300 to 1000	Cc1cc(Cl)cc(O)c1-c1cc2ccn(CC3CCN(C)CC3(F)F)c2nn1 (centres unmarked) [Compound 35, 5-Chloro-2-{7-[(3,3-difluoro-1-methylpiperidin-4-yl)methyl]-7H-pyrrolo[2,3-c]pyridazin-3-yl}-3-methylphenol hydrochloride]	100 to 300
300 to 1000	Cc1cc(Cl)cc(O)c1-c1cc2ccn(CC(=O)N3CCCCC3)c2nn1 [Compound 36, 2-[3-(4-Chloro-2-hydroxy-6-methylphenyl)-7H-pyrrolo[2,3-c]pyridazin-7-yl]-1-(piperidin-1-yl)ethan-1-one]	300 to 1000
100 to 300	Cc1cc(Cl)cc(O)c1-c1cc2ccn(CC3CCCO3)c2nn1 (centres unmarked) [Compound 43, 5-Chloro-3-methyl-2-{7-[(oxolan-2-yl)methyl]-7H-pyrrolo[2,3-c]pyridazin-3-yl}phenol]	100 to 300
100 to 300	Cc1cc(Cl)cc(O)c1-c1cc2ccn(C[C@@H]3CCCCN3C)c2nn1 [Compound 46, 5-Chloro-3-methyl-2-(7-{[(2S)-1-methylpiperidin-2-yl]methyl}-7H-pyrrolo[2,3-c]pyridazin-3-yl)phenol hydrochloride]	30 to 100
100 to 300	Cc1cc(Cl)cc(O)c1-c1cc2ccn(CC3COC3)c2nn1 [Compound 48, 5-Chloro-3-methyl-2-{7-[(oxetan-3-yl)methyl]-7H-pyrrolo[2,3-c]pyridazin-3-yl}phenol]	100 to 300
100 to 300	Cc1cc(Cl)cc(O)c1-c1cc2ccn(CC3CC4(C3)CN(C)C4)c2nn1 [Compound 52, 5-Chloro-3-methyl-2-[7-({2-methyl-2-azaspiro[3.3]heptan-6-yl}methyl)-7H-pyrrolo[2,3-c]pyridazin-3-yl]phenol hydrochloride]	300 to 1000
100 to 300	CC(=O)N1CCCC(Cn2ccc3cc(-c4c(C)cc(Cl)cc4O)nnc32)C1 (centres unmarked) [Compound 53, 1-(3-{[3-(4-Chloro-2-hydroxy-6-methylphenyl)-7H-pyrrolo[2,3-c]pyridazin-7-yl]methyl}piperidin-1-yl)ethan-1-one]	100 to 300
30 to 100	Cc1cc(Cl)cc(O)c1-c1cc2ccn(CC3(C#N)CCN(C)CC3)c2nn1 [Compound 55, 4-{[3-(4-Chloro-2-hydroxy-6-methylphenyl)-7H-pyrrolo[2,3-c]pyridazin-7-yl]methyl}-1-methylpiperidine-4-carbonitrile]	30 to 100
< 30	Cc1cc(Cl)cc(O)c1-c1cc2ccn(CC3(O)CCN(C)CC3)c2nn1 [Compound 56, 4-{[3-(4-Chloro-2-hydroxy-6-methylphenyl)-7H-pyrrolo[2,3-c]pyridazin-7-yl]methyl}-1-methylpiperidin-4-ol hydrochloride]	< 30
